Patent publication US20260234135A1, “CRYSTALLINE FORMS OR SALTS OF A DEUTERATED COMPOUND” (ALEBUND PHARMACEUTICALS (HONG KONG) LIMITED, priority 2023, published 2026)
Like-named read-outs stand apart in the source and are kept apart here.

Assays:
[1] = Hygroscopicity evaluation by DVS at 25° C.; assay type: physicochemical
Experimental: DVS was measured via a SMS (Surface Measurement Systems) DVS Intrinsic. The relative humidity at 25° C. were calibrated against deliquescence point of LiCl, Mg(NO3)2 and KCl.

[2] = for Form or purity change after storage: 60° C./close and 40° C./75% RH/open for 2/4/8 weeks

N=C(N)NCCCC(N)C(=O)O.[2H]C([2H])(Cc1nc(-c2ccccc2)oc1C)Oc1ccc(C[C@H](OC)C(=O)O)c2sccc12 [arginine salt Form A]
Hygroscopicity ([1]; DVS, 25° C.): slightly hygroscopicity
Water uptake up to 80% RH ([1]; DVS, 25° C.): 0.5%
Form change after DVS test ([1]; XRPD after DVS): No form change
Area (%) of impurity peak RRT 0.88 ([2]; 40° C./75% RH, 2 weeks): 0.14%
Area (%) of impurity peak RRT 1.14 ([2]; 40° C./75% RH, 2 weeks): 0.06%
Area (%) of impurity peak RRT 1.34 ([2]; 40° C./75% RH, 2 weeks): 0.22%
Area (%) of impurity peak RRT 0.88 ([2]; 40° C./75% RH, 4 weeks): 0.11%
Area (%) of impurity peak RRT 1.34 ([2]; 40° C./75% RH, 4 weeks): 0.19%
Area (%) of impurity peak RRT 0.88 ([2]; 40° C./75% RH, 8 weeks): 0.07%
Area (%) of impurity peak RRT 1.34 ([2]; 40° C./75% RH, 8 weeks): 0.19%
HPLC Purity (area %), main peak RRT 1.00 ([2]; 40° C./75% RH/open, 2 weeks): 99.59 area %
HPLC Reults of initial (%) ([2]; 40° C./75% RH/open, 2 weeks): 99.87%
HPLC Purity (area %), main peak RRT 1.00 ([2]; 40° C./75% RH/open, 4 weeks): 99.70 area %
HPLC Reults of initial (%) ([2]; 40° C./75% RH/open, 4 weeks): 99.98%
HPLC Purity (area %), main peak RRT 1.00 ([2]; 40° C./75% RH/open, 8 weeks): 99.74 area %
HPLC Reults of initial (%) ([2]; 40° C./75% RH/open, 8 weeks): 100.02%
Area (%) of impurity peak RRT 0.88 ([2]; 60° C., 2 weeks): 0.06%
Area (%) of impurity peak RRT 1.34 ([2]; 60° C., 2 weeks): 0.18%
Area (%) of impurity peak RRT 0.88 ([2]; 60° C., 4 weeks): 0.09%
Area (%) of impurity peak RRT 1.34 ([2]; 60° C., 4 weeks): 0.18%
Area (%) of impurity peak RRT 0.81 ([2]; 60° C., 8 weeks): 0.05%
Area (%) of impurity peak RRT 0.88 ([2]; 60° C., 8 weeks): 0.06%
Area (%) of impurity peak RRT 1.34 ([2]; 60° C., 8 weeks): 0.18%
Form or purity change after storage [2]: No form or purity decrease
HPLC Purity (area %), main peak RRT 1.00 ([2]; 60° C./close, 2 weeks): 99.76 area %
HPLC Reults of initial (%) ([2]; 60° C./close, 2 weeks): 100.04%
HPLC Purity (area %), main peak RRT 1.00 ([2]; 60° C./close, 4 weeks): 99.73 area %
HPLC Reults of initial (%) ([2]; 60° C./close, 4 weeks): 100.01%
HPLC Purity (area %), main peak RRT 1.00 ([2]; 60° C./close, 8 weeks): 99.71 area %
HPLC Reults of initial (%) ([2]; 60° C./close, 8 weeks): 99.99%
Area (%) of impurity peak RRT 0.88 ([2]; Initial): 0.07%
Area (%) of impurity peak RRT 1.34 ([2]; Initial): 0.20%
HPLC Purity (area %), main peak RRT 1.00 ([2]; Initial): 99.72 area %

[2H]C([2H])(Cc1nc(-c2ccccc2)oc1C)Oc1ccc(C[C@H](OC)C(=O)O)c2sccc12 [free acid Form E]
Area (%) of impurity peak RRT 0.88 ([2]; 40° C./75% RH, 2 weeks): 0.33%
Area (%) of impurity peak RRT 1.14 ([2]; 40° C./75% RH, 2 weeks): 0.15%
Area (%) of impurity peak RRT 1.28 ([2]; 40° C./75% RH, 2 weeks): 0.18%
Area (%) of impurity peak RRT 1.33 ([2]; 40° C./75% RH, 2 weeks): 0.25%
Area (%) of impurity peak RRT 0.88 ([2]; 40° C./75% RH, 4 weeks): 0.35%
Area (%) of impurity peak RRT 1.14 ([2]; 40° C./75% RH, 4 weeks): 0.15%
Area (%) of impurity peak RRT 1.28 ([2]; 40° C./75% RH, 4 weeks): 0.23%
Area (%) of impurity peak RRT 1.33 ([2]; 40° C./75% RH, 4 weeks): 0.27%
Area (%) of impurity peak RRT 0.88 ([2]; 40° C./75% RH, 8 weeks): 0.32%
Area (%) of impurity peak RRT 1.14 ([2]; 40° C./75% RH, 8 weeks): 0.13%
Area (%) of impurity peak RRT 1.28 ([2]; 40° C./75% RH, 8 weeks): 0.20%
Area (%) of impurity peak RRT 1.33 ([2]; 40° C./75% RH, 8 weeks): 0.27%
HPLC Purity (area %), main peak RRT 1.00 ([2]; 40° C./75% RH/open, 2 weeks): 99.08 area %
HPLC Reults of initial (%) ([2]; 40° C./75% RH/open, 2 weeks): 100.07%
HPLC Purity (area %), main peak RRT 1.00 ([2]; 40° C./75% RH/open, 4 weeks): 99.00 area %
HPLC Reults of initial (%) ([2]; 40° C./75% RH/open, 4 weeks): 99.99%
HPLC Purity (area %), main peak RRT 1.00 ([2]; 40° C./75% RH/open, 8 weeks): 99.03 area %
HPLC Reults of initial (%) ([2]; 40° C./75% RH/open, 8 weeks): 100.02%
Area (%) of impurity peak RRT 0.88 ([2]; 60° C., 2 weeks): 0.32%
Area (%) of impurity peak RRT 1.14 ([2]; 60° C., 2 weeks): 0.16%
Area (%) of impurity peak RRT 1.28 ([2]; 60° C., 2 weeks): 0.23%
Area (%) of impurity peak RRT 1.33 ([2]; 60° C., 2 weeks): 0.25%
Area (%) of impurity peak RRT 0.88 ([2]; 60° C., 4 weeks): 0.38%
Area (%) of impurity peak RRT 1.14 ([2]; 60° C., 4 weeks): 0.17%
Area (%) of impurity peak RRT 1.28 ([2]; 60° C., 4 weeks): 0.26%
Area (%) of impurity peak RRT 1.33 ([2]; 60° C., 4 weeks): 0.29%
Area (%) of impurity peak RRT 0.88 ([2]; 60° C., 8 weeks): 0.34%
Area (%) of impurity peak RRT 1.14 ([2]; 60° C., 8 weeks): 0.14%
Area (%) of impurity peak RRT 1.28 ([2]; 60° C., 8 weeks): 0.23%
Area (%) of impurity peak RRT 1.33 ([2]; 60° C., 8 weeks): 0.27%
Form or purity change after storage [2]: No form or purity decrease
HPLC Purity (area %), main peak RRT 1.00 ([2]; 60° C./close, 2 weeks): 99.04 area %
HPLC Reults of initial (%) ([2]; 60° C./close, 2 weeks): 100.03%
HPLC Purity (area %), main peak RRT 1.00 ([2]; 60° C./close, 4 weeks): 98.89 area %
HPLC Reults of initial (%) ([2]; 60° C./close, 4 weeks): 99.88%
HPLC Purity (area %), main peak RRT 1.00 ([2]; 60° C./close, 8 weeks): 98.96 area %
HPLC Reults of initial (%) ([2]; 60° C./close, 8 weeks): 99.95%
Area (%) of impurity peak RRT 0.88 ([2]; Initial): 0.31%
Area (%) of impurity peak RRT 1.14 ([2]; Initial): 0.16%
Area (%) of impurity peak RRT 1.28 ([2]; Initial): 0.26%
Area (%) of impurity peak RRT 1.33 ([2]; Initial): 0.25%
HPLC Purity (area %), main peak RRT 1.00 ([2]; Initial): 99.01 area %
